Consider eight molecules from PubChem BioAssay (NCI).

Where “and” joins values, the source holds several entries; their conditions need not be identical. Equal entries are not always repeated.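 Briefly, cells in 96-well plates were exposed to five compound concentrations for 48 h, and endpoints were estimated by linear interpolation. GI50 = concentration required for 50% inhibition of growth. TGI denotes the concentration required for complete inhibition of growth.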

Among the test systems are NCI/ADR-RES ovarian; RPMI-8226 leukemia; HCT-116 colon; SNB-19 CNS; M14 melanoma; ACHN renal; EKVX NSCLC; CAKI-1 renal; MDA-MB-231 breast; RXF 393 renal.
What all share (experiment): NCI-60 cell line screen, 48 h

On to `COCCn1c2c([n+](Cc3cnccn3)c1C)C(=O)c1ccccc1C2=O`, for which the TGI in the assay on NCI/ADR-RES ovarian is more than 100 µM; with RPMI-8226 leukemia, less than 0.0114 µM; with HCT-116 colon it was 0.0106 µM; in the assay with SNB-19 CNS, 0.0153 µM; in the assay on M14 melanoma, 0.0505 µM; in the assay with ACHN renal it was 2.11 µM. The TGI in the assay with EKVX NSCLC is 0.0162 µM; in the assay on CAKI-1 renal, more than 100 µM; in the assay with MDA-MB-231 breast, 0.013 µM; in the assay on RXF 393 renal it was 0.128 µM. For the same molecule, the GI50 with RPMI-8226 leukemia is less than 0.01 µM; in the assay on HCT-116 colon, less than 0.01 µM; in the assay on SNB-19 CNS, less than 0.01 µM; in the assay on M14 melanoma, less than 0.0126 µM; in the assay with ACHN renal, 0.04 µM; with EKVX NSCLC, less than 0.01 µM. The results for the GI50 in the assay on CAKI-1 renal, in the assay with MDA-MB-231 breast and with RXF 393 renal were 2.72 µM, less than 0.01 µM and 0.0156 µM, respectively.
On to `Nc1nc(N)c2c(n1)CCC(S(=O)(=O)c1ccc3ccccc3c1)C2` (stereo not drawn), for which the TGI in the assay on NCI/ADR-RES ovarian was more than 100 µM; in the assay on RPMI-8226 leukemia, more than 84.4 µM; in the assay with HCT-116 colon, more than 100 µM; with SNB-19 CNS, more than 85.2 µM; with M14 melanoma, 61 µM; with ACHN renal, more than 100 µM. For the same molecule, the TGI is more than 100 µM with EKVX NSCLC, more than 100 µM in the assay on CAKI-1 renal, more than 60.5 µM in the assay on MDA-MB-231 breast and 57.8 µM with RXF 393 renal. For the same molecule, the GI50 with RXF 393 renal is 2.53 µM.
Consider `CC[C@@]1(O)C(=O)OCc2c1cc1n(c2=O)Cc2c-1nc1cc(F)c(C)c3c1c2[C@@H](NC(=O)CO)CC3`, for which the GI50 with NCI/ADR-RES ovarian was 0.0564 µM; with RPMI-8226 leukemia, 0.0721 µM; in the assay with HCT-116 colon, less than 0.01 µM; in the assay with SNB-19 CNS, less than 0.01 µM; in the assay on M14 melanoma, less than 0.01 µM; with ACHN renal, less than 0.01 µM. Further, the GI50 in the assay on EKVX NSCLC was 0.311 µM; with CAKI-1 renal, less than 0.01 µM; with MDA-MB-231 breast, 0.511 µM; in the assay on RXF 393 renal it was less than 0.01 µM. For the same molecule, the TGI in the assay with NCI/ADR-RES ovarian is 3.98 µM; with RPMI-8226 leukemia, 1.67 µM; with HCT-116 colon it was more than 100 µM; in the assay on SNB-19 CNS it was 2.53 µM; with M14 melanoma, 0.0957 µM; in the assay with ACHN renal, 0.131 µM. In addition, the TGI is more than 100 µM with EKVX NSCLC, 0.117 µM in the assay on CAKI-1 renal, more than 100 µM in the assay with MDA-MB-231 breast and 0.0731 µM in the assay on RXF 393 renal.
As to `c1ccc(CC(Nc2cccnc2)c2ccccc2)cc1` (stereo not drawn), the TGI in the assay on NCI/ADR-RES ovarian was 68.2 µM; with RPMI-8226 leukemia, 56.5 µM; in the assay on HCT-116 colon it was 30.1 µM; in the assay with SNB-19 CNS it was more than 100 µM; in the assay on M14 melanoma, 37.9 µM; in the assay with ACHN renal, more than 100 µM. The TGI is 98.3 µM with EKVX NSCLC, more than 100 µM in the assay with CAKI-1 renal, 48.7 µM with MDA-MB-231 breast and 51.2 µM with RXF 393 renal.
Regarding `COc1c(B(O)O)cccc1-c1nc2c(F)cc3n[nH]c(C)c3c2c2c1CCCC2`, the GI50 is 1.48 µM in the assay with NCI/ADR-RES ovarian; 0.655 µM with RPMI-8226 leukemia; 0.314 µM in the assay on HCT-116 colon; 1.17 µM with SNB-19 CNS; 2.28 µM in the assay with M14 melanoma; 0.534 µM in the assay on ACHN renal. The GI50 in the assay on EKVX NSCLC was 1.42 µM; in the assay on CAKI-1 renal, 0.0106 µM; with MDA-MB-231 breast, 0.0412 µM; in the assay on RXF 393 renal, 0.044 µM. The TGI is more than 50 µM in the assay on NCI/ADR-RES ovarian; 4.81 µM in the assay with RPMI-8226 leukemia; more than 50 µM with HCT-116 colon; more than 50 µM in the assay on SNB-19 CNS; 8.93 µM with M14 melanoma; more than 50 µM in the assay on ACHN renal. The TGI in the assay with EKVX NSCLC is more than 27 µM; in the assay on CAKI-1 renal it was 0.213 µM; in the assay with MDA-MB-231 breast, more than 50 µM; with RXF 393 renal it was 0.924 µM.
As for `NC1(C(=O)N[C@@H](CCO)c2ccc(Cl)cc2)CCN(c2ncnc3[nH]ccc23)CC1`, the GI50 was more than 100 µM in the assay with NCI/ADR-RES ovarian; > 2.61 µM and 27.3 µM in the assay on RPMI-8226 leukemia; 2.75 µM and 10.7 µM with HCT-116 colon; 1.5 µM and 3.82 µM in the assay with SNB-19 CNS; > 2.68 µM and 9.15 µM in the assay on M14 melanoma; > 2.01 µM and 9.6 µM in the assay on ACHN renal. For the same molecule, the GI50 in the assay with EKVX NSCLC is 7.46 µM; with CAKI-1 renal, > 2.14 µM and 14.1 µM; in the assay with MDA-MB-231 breast it was > 3.44 µM and 41 µM; with RXF 393 renal, 0.13 µM and 0.354 µM. The TGI in the assay on NCI/ADR-RES ovarian is more than 100 µM; in the assay with RPMI-8226 leukemia, more than 81.8 µM; in the assay on HCT-116 colon, > 10 µM and 78.6 µM; in the assay with SNB-19 CNS, more than 100 µM; in the assay on M14 melanoma it was more than 81.4 µM; in the assay on ACHN renal it was more than 100 µM. The TGI with EKVX NSCLC was more than 100 µM; in the assay with CAKI-1 renal, more than 100 µM; with MDA-MB-231 breast, more than 100 µM; with RXF 393 renal, 0.69 µM and 5.83 µM.
Turning to `O=C(O)c1ccc(/C=N/N=C2c3ccccc3-c3ccccc32)cc1`, the TGI with NCI/ADR-RES ovarian, in the assay with RPMI-8226 leukemia, in the assay with HCT-116 colon, in the assay with SNB-19 CNS, with M14 melanoma and in the assay on ACHN renal was more than 100 µM in each case. Besides, the TGI in the assay on EKVX NSCLC was more than 100 µM; in the assay with CAKI-1 renal, 93.3 µM; with MDA-MB-231 breast it was more than 100 µM; with RXF 393 renal, more than 100 µM.
Regarding `O=c1/c(=C\c2ccc(Br)cc2)sc2n1C(c1ccc(Br)cc1)C1=C(N=2)c2ccc3ccccc3c2OCC1` (stereo not drawn), the GI50 in the assay on NCI/ADR-RES ovarian, with RPMI-8226 leukemia, with HCT-116 colon, in the assay with SNB-19 CNS, in the assay on M14 melanoma and with ACHN renal was more than 100 µM throughout. For the same molecule, the GI50 with EKVX NSCLC, in the assay on MDA-MB-231 breast and with RXF 393 renal was more than 100 µM throughout. Further, the TGI with NCI/ADR-RES ovarian, in the assay on RPMI-8226 leukemia, with HCT-116 colon, in the assay with SNB-19 CNS, in the assay with M14 melanoma and with ACHN renal was more than 100 µM in each case. In addition, the TGI in the assay with EKVX NSCLC, with MDA-MB-231 breast and with RXF 393 renal was more than 100 µM throughout.
